Assay: isobaric coefficient of expansion
Conditions: Liquid, DSC

CCC#N [propanenitrile]
isobaric coefficient of expansion
Conditions	278.15 K	288.15 K	298.15 K	308.15 K	318.15 K	328.15 K	338.15 K	348.15 K
5000 kPa	0.00122 1/K	0.00125 1/K	0.00128 1/K	0.0013 1/K	0.00135 1/K	0.00139 1/K	0.00144 1/K	0.0015 1/K
10000 kPa	0.0012 1/K	0.00121 1/K	0.00123 1/K	0.00126 1/K	0.00129 1/K	0.00133 1/K	0.00136 1/K	0.00141 1/K
15000 kPa	0.00117 1/K	0.00118 1/K	0.0012 1/K	0.00121 1/K	0.00125 1/K	0.00127 1/K	0.0013 1/K	0.00133 1/K
20000 kPa	0.00114 1/K	0.00115 1/K	0.00117 1/K	0.00118 1/K	0.0012 1/K	0.00122 1/K	0.00125 1/K	0.00127 1/K
25000 kPa	0.00111 1/K	0.00112 1/K	0.00113 1/K	0.00114 1/K	0.00116 1/K	0.00118 1/K	0.0012 1/K	0.00122 1/K
30000 kPa	0.00109 1/K	0.0011 1/K	0.00111 1/K	0.00111 1/K	0.00113 1/K	0.00114 1/K	0.00115 1/K	0.00117 1/K
35000 kPa	0.00107 1/K	0.00107 1/K	0.00108 1/K	0.00109 1/K	0.0011 1/K	0.00111 1/K	0.00112 1/K	0.00113 1/K
40000 kPa	0.00104 1/K	0.00105 1/K	0.00105 1/K	0.00106 1/K	0.00106 1/K	0.00107 1/K	0.00107 1/K	0.00108 1/K
45000 kPa	0.00102 1/K	0.00103 1/K	0.00103 1/K	0.00104 1/K	0.00104 1/K	0.00105 1/K	0.00105 1/K	0.00105 1/K
50000 kPa	0.001 1/K	0.00101 1/K	0.00101 1/K	0.00101 1/K	0.00102 1/K	0.00102 1/K	0.00102 1/K	0.00103 1/K
55000 kPa	0.000991 1/K	0.000992 1/K	0.000993 1/K	0.000994 1/K	0.001 1/K	0.001 1/K	0.00101 1/K	0.00101 1/K

O=[N+]([O-])c1ccccc1 [nitrobenzene]
isobaric coefficient of expansion
Conditions	288.15 K	298.15 K	308.15 K	318.15 K	328.15 K	338.15 K	348.15 K
5000 kPa	0.000818 1/K	0.000823 1/K	0.000827 1/K	0.000832 1/K	0.000837 1/K	0.000843 1/K	0.000852 1/K
10000 kPa	0.000813 1/K	0.000808 1/K	0.000812 1/K	0.00082 1/K	0.000821 1/K	0.000828 1/K	0.000827 1/K
15000 kPa	0.000797 1/K	0.0008 1/K	0.000799 1/K	0.000802 1/K	0.000802 1/K	0.000806 1/K	0.000811 1/K
20000 kPa	0.000785 1/K	0.000785 1/K	0.000787 1/K	0.000792 1/K	0.000787 1/K	0.00079 1/K	0.000794 1/K
25000 kPa	0.000775 1/K	0.000772 1/K	0.000773 1/K	0.000774 1/K	0.000774 1/K	0.000775 1/K	0.00078 1/K
30000 kPa	0.000762 1/K	0.000762 1/K	0.00076 1/K	0.000762 1/K	0.000761 1/K	0.000762 1/K	0.000764 1/K
35000 kPa	0.000749 1/K	0.000752 1/K	0.00075 1/K	0.000749 1/K	0.00075 1/K	0.000751 1/K	0.00075 1/K
40000 kPa	0.00074 1/K	0.000742 1/K	0.000737 1/K	0.000737 1/K	0.000739 1/K	0.000736 1/K	0.000734 1/K
45000 kPa	0.000729 1/K	0.000731 1/K	0.000728 1/K	0.000729 1/K	0.000726 1/K	0.000725 1/K	0.000721 1/K
50000 kPa	0.000725 1/K	0.000722 1/K	0.000719 1/K	0.000718 1/K	0.000716 1/K	0.000715 1/K	0.000711 1/K
55000 kPa	0.000717 1/K	0.000714 1/K	0.00071 1/K	0.00071 1/K	0.000707 1/K	0.000708 1/K	0.000701 1/K

From the NIST ThermoML archive (doi:10.1021/je900672g)
